Read-outs that look alike come from different tables or passages of the source.
System: Rhizoctonia solani
Assay: Microtiter plate (MTP) fungal growth inhibition assay, OD at 590 nm after 5 days; interaction by Wadley approach
Format: cell-based
Settings: for EC50: Rhizoctonia solani
Protocol: In the […] method, synergistic activity is determined from dose response curves. With this method, the efficacy of the active ingredient (“a.i.”) is determined by comparing the degree of fungal attack on treated plants with that on untreated, similarly inoculated and incubated check plants. Each a.i. is generally tested at multiple. (e.g., 6) 25 concentrations, and dose response curves are generated. The dose response curves are used to establish the EC50 (i.e., the effective concentration of a.i. providing 50% disease control) of the individual compounds as well as of the combinations (EC50Observed) The experimentally found values of the mixture at a given weight ratio are compared with the values that would have been found were only a complementary efficacy of the components was present as follows: 5 [formula] • A and B=the single products tested • a and b=the ratio of each product in the mixture • ECA and ECB=observed effective concentration of the single products A and B at different control levels (50 or 90%) 10 The ratio EC50 (A+B)Theo/EC50(A+B)observed expresses the factor of interaction level (R) which may be interpreted in accordance with the following Table: [table] The compound of Formula I, […] and Pyridachlometyl were tested straight or in mixture on the Rhizoctonia solani pathogen. the active ingredients straight or in mixture were diluted in a suitable solvent to a set of concentrations. Two fungicide ratios were tested for each combination between the compound of Formula I and Chloroinconazide or Pyridachlometyl. One hundred microliters of sterile distilled water with or without fungicide were added to 100 μl of pathogen suspension into each well in a microtiter plate (MTP). Each bioassay was carried out with the following 8 treatment groups corresponding to 8 concentrations of the fungicide mixture. In the MTP assay, 3 replicates (wells) were carried out for each concentration of fungicide mixture. The MTPs were incubated in the dark at 19° C. for 5 days under saturated humidity in order to avoid evaporation. Then, the fungal growth in each well was estimated by measuring the Optical Density (OD) at 590 nm with a BMG plate reader (FLUOstar Omega, BMG Labtech). The OD values at 5 days were automatically corrected by comparison with those measured at day zero (inoculation day). The generated data were transferred to the MARS Data Analysis software (BMG Labtech) which allows to calculate percentage of growth inhibition induced by each concentration of fungicide tested. Finally, the EC50 of each product and mixture was determined. • (i) No bacterial nor fungal contamination at any stage of the assay must be observed. • (ii) A normal and constant mycelium growth must be observed in the control wells (without fungicide). • (iii) At the end of the evaluation the final minimum OD must reach at least a value of 0.25 Absorbance's Unit (AU).

[1] = MTP, 5 days at 19° C., OD 590 nm
[2] = Table 9, active ingredient straight

How did the “percentage of growth inhibition” value (Dose 0.110) turn out when `CC1N[C@H](C(=O)N/N=C/c2ccc(Cl)cc2)Cc2c1[nH]c1ccccc21` (stereo partly drawn) [Chloroinconazide] was run?
The value was 14.4%.

And the “percentage of growth inhibition” value (Dose 0.329)?
The value was 2.0%.

What about the “percentage of growth inhibition” value (Dose 0.988) of the same compound?
Its value is 24.1%.

What about the “percentage of growth inhibition” value (Dose 2.96) of the same compound?
Its value is 9.1%.

What about the “percentage of growth inhibition” value (Dose 8.89) of the same compound?
Its value is 19.5%.

What about the “percentage of growth inhibition” value (Dose 26.7) of the same compound?
The value was 99.3%.

And the “percentage of growth inhibition” value (Dose 80)?
The value was 100.1%.

What about the EC50 [1] of the same compound?
Its EC50 is 15.399 µg/mL.

What about the EC50 observed [2] of the same compound?
Its EC50 observed is 15.3990 µg/mL.

`Cc1ccc(S(=O)(=O)n2cc(F)c(=N)n(C)c2=O)cc1` [Compound (I), 5-fluoro-4-imino-3-methyl-1-tosyl-3,4-dihydropyrimidin-2(1H)-one] was tested. Which EC50 (120 h, MTP, 5 days at 19° C., OD 590 nm, read-out: EC50) did it give?
Its EC50 is > 320 µg/mL.

What about the “percentage of growth inhibition” value (Dose 0.020) of the same compound?
Its value is 15.8%.

What about the “percentage of growth inhibition” value (Dose 0.102) of the same compound?
The value was 23.9%.

And the “percentage of growth inhibition” value (Dose 0.512)?
The value was 22.5%.

What about the “percentage of growth inhibition” value (Dose 2.56) of the same compound?
Its value is 0.7%.

And the “percentage of growth inhibition” value (Dose 12.8)?
The value was 13.5%.

And the “percentage of growth inhibition” value (Dose 64)?
Its value is 27.7%.

And the “percentage of growth inhibition” value (Dose 320)?
Its value is 40.1%.

And the EC50 (Table 9, active ingredient straight, read-out: EC50 observed)?
Its EC50 is ≥ 320 µg/mL.

For `Cc1nnc(Cl)c(-c2c(F)cccc2F)c1-c1ccccc1` [Pyridachlometyl], which “percentage of growth inhibition” value (Dose 0.00781) is on record?
Its value is −1.1%.

What about the “percentage of growth inhibition” value (Dose 0.01563) of the same compound?
Its value is 2.6%.

And the “percentage of growth inhibition” value (Dose 0.03125)?
The value was 3.7%.

And the “percentage of growth inhibition” value (Dose 0.06250)?
Its value is 12.7%.

What about the “percentage of growth inhibition” value (Dose 0.12500) of the same compound?
The value was 68.7%.

What about the “percentage of growth inhibition” value (Dose 0.2500) of the same compound?
Its value is 76.0%.

And the “percentage of growth inhibition” value (Dose 0.500)?
The value was 77.2%.

What about the EC50 [1] of the same compound?
Its EC50 is 0.111 µg/mL.

And the EC50 observed [2]?
The EC50 observed was 0.1115 µg/mL.

— patent US20260271929A1, “FUNGICIDAL COMBINATIONS, MIXTURES AND COMPOSITIONS AND USES THEREOF” (ADAMA MAKHTESHIM LTD., priority 2023, published 2026)
